The source of these data is ChEMBL document CHEMBL3627608, “Crystal structures of human RIP2 kinase catalytic domain complexed with ATP-competitive inhibitors: Foundations for understanding inhibitor selectivity” (Bioorg Med Chem, 2015).

For assay [1], the target named is T1, Dual specificity tyrosine-phosphorylation-regulated kinase 2 (Homo sapiens) (UniProt Q92630).
T1 sequence (whole entry): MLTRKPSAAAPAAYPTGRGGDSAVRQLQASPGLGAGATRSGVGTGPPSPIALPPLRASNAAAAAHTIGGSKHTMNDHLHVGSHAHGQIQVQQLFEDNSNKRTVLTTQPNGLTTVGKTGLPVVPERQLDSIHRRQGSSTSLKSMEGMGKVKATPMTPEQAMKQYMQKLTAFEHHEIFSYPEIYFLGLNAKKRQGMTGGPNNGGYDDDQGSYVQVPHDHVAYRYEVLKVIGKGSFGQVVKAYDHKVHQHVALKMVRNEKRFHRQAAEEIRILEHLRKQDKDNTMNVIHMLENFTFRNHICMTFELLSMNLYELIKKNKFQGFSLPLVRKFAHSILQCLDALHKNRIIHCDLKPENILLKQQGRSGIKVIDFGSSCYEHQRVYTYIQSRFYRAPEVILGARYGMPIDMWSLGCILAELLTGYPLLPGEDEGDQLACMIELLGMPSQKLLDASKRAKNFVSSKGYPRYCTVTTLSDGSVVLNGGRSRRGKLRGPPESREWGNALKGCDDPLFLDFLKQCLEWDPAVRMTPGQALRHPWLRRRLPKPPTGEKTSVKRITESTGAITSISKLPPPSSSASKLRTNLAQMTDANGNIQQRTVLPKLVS
Kind of assay: Inhibition of DYRK2 (unknown origin) at 10 uM after 120 mins P33 radiolabeled kinase activity assay.

Assay [2] concerns the target Mitogen-activated protein kinase kinase kinase kinase 4 (Homo sapiens) (UniProt O95819). In words: Inhibition of HGK (unknown origin) at 10 uM after 120 mins P33 radiolabeled kinase activity assay.
Assay [3] deals with Mitogen-activated protein kinase kinase kinase kinase 1 (Homo sapiens) (UniProt Q92918). Kind of assay: Inhibition of HPK1 (unknown origin) at 10 uM after 120 mins P33 radiolabeled kinase activity assay.
Assay [4] has as its target Serine/threonine-protein kinase PAK 5 (Homo sapiens) (UniProt Q9P286). Kind of assay: Inhibition of PAK5 (unknown origin) at 10 uM after 120 mins P33 radiolabeled kinase activity assay.
The target in assay [5] is Serine/threonine-protein kinase pim-2 (Homo sapiens) (UniProt Q9P1W9). In words: Inhibition of PIM2 (unknown origin) at 10 uM after 120 mins P33 radiolabeled kinase activity assay.
Assay [6] concerns the target Protein kinase C gamma type (Homo sapiens) (UniProt P05129). Kind of assay: Inhibition of PKCgamma (unknown origin) at 10 uM after 120 mins P33 radiolabeled kinase activity assay.
Assay [7] concerns the target T2, Serine/threonine-protein kinase D2 (Homo sapiens) (UniProt Q9BZL6).
T2 sequence (whole entry): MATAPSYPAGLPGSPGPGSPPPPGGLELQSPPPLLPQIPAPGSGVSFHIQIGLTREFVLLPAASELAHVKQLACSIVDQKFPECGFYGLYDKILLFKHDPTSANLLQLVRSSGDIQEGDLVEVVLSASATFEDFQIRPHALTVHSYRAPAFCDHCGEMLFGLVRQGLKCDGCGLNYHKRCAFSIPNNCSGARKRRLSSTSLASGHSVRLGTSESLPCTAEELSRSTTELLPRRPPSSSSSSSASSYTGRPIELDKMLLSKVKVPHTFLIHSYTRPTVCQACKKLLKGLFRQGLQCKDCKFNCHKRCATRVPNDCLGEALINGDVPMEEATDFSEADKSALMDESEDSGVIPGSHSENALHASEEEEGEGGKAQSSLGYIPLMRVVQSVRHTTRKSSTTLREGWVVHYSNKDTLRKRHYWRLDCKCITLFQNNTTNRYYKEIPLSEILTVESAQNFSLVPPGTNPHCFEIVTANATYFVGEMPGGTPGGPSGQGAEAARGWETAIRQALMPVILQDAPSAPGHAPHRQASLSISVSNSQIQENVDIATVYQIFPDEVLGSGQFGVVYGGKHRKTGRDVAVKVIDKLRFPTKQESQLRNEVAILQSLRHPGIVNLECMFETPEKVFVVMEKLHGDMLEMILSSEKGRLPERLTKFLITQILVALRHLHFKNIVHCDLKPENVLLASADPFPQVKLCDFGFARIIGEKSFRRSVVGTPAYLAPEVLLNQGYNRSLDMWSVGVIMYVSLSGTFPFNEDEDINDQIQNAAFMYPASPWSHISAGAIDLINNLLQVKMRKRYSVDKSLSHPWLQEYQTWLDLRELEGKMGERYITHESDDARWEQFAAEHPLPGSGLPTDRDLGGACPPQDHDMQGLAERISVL
Kind of assay: Inhibition of PKD2 (unknown origin) at 10 uM after 120 mins P33 radiolabeled kinase activity assay.

The target in assay [8] is Insulin-like growth factor 1 receptor (Homo sapiens) (UniProt P08069). Kind of assay: Inhibition of IGF1R (unknown origin) at 10 uM after 120 mins P33 radiolabeled kinase activity assay.
In assay [9] the target is Leucine-rich repeat serine/threonine-protein kinase 2 (Homo sapiens) (UniProt Q5S007). Kind of assay: Inhibition of LRRK2 (unknown origin) at 10 uM after 120 mins P33 radiolabeled kinase activity assay.
Assay [10] concerns the target BDNF/NT-3 growth factors receptor (Homo sapiens) (UniProt Q16620). In words: Inhibition of TRKB (unknown origin) at 10 uM after 120 mins P33 radiolabeled kinase activity assay.
The target in assay [11] is Tyrosine-protein kinase ABL2 (Homo sapiens) (UniProt P42684). In words: Inhibition of ABL2 (unknown origin) at 10 uM after 120 mins P33 radiolabeled kinase activity assay.
For assay [12], the target named is Receptor-interacting serine/threonine-protein kinase 2 (Homo sapiens, UniProt O43353). Kind of assay: Inhibition of full-length FLAG-6His-TEV tagged human RIP2 expressed in Sf9 cells by fluorescent polarization assay.
Assay [13] deals with Calcium/calmodulin-dependent protein kinase type II subunit delta (Homo sapiens) (UniProt Q13557). Kind of assay: Inhibition of CAMK2delta (unknown origin) at 10 uM after 120 mins P33 radiolabeled kinase activity assay.
The target in assay [14] is Death-associated protein kinase 2 (Homo sapiens) (UniProt Q9UIK4). In words: Inhibition of DAPK2 (unknown origin) at 10 uM after 120 mins P33 radiolabeled kinase activity assay.

Each structure is given as a SMILES string.

Sequence of Calcium/calmodulin-dependent protein kinase type II subunit delta (Homo sapiens) (Q13557 whole entry): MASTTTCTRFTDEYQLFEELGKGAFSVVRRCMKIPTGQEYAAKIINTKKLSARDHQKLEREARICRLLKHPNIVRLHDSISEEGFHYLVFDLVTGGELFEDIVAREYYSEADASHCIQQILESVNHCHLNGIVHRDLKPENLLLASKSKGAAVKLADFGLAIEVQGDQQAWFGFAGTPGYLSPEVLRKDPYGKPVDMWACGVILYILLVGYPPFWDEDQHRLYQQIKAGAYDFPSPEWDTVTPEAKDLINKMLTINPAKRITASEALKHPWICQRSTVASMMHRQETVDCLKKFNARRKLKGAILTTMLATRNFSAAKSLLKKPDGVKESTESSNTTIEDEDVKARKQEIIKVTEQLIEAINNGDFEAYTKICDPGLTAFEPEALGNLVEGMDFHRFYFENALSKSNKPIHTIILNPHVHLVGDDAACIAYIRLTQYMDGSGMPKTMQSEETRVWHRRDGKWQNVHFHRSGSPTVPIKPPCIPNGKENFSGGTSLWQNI
Sequence of Insulin-like growth factor 1 receptor (Homo sapiens) (P08069 31-736 limits assumed): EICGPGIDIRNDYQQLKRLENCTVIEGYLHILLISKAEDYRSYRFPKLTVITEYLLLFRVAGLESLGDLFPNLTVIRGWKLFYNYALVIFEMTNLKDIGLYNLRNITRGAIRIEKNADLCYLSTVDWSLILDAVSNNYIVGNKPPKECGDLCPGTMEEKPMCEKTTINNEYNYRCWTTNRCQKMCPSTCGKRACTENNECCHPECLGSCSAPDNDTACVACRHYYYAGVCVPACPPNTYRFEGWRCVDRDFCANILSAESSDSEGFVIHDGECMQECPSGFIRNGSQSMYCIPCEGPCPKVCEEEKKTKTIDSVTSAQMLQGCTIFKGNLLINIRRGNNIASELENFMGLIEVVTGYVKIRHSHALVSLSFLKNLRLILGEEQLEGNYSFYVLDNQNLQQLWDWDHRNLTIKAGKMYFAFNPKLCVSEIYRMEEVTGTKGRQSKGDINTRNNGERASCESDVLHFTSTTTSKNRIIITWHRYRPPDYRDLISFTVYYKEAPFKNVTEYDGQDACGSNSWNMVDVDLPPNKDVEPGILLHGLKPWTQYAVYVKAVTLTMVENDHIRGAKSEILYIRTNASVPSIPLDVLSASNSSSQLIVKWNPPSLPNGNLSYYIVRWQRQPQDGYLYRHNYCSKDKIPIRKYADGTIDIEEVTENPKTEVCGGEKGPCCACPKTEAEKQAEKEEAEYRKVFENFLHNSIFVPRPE
Sequence of Insulin-like growth factor 1 receptor (Homo sapiens) (P08069 741-1367 limits assumed): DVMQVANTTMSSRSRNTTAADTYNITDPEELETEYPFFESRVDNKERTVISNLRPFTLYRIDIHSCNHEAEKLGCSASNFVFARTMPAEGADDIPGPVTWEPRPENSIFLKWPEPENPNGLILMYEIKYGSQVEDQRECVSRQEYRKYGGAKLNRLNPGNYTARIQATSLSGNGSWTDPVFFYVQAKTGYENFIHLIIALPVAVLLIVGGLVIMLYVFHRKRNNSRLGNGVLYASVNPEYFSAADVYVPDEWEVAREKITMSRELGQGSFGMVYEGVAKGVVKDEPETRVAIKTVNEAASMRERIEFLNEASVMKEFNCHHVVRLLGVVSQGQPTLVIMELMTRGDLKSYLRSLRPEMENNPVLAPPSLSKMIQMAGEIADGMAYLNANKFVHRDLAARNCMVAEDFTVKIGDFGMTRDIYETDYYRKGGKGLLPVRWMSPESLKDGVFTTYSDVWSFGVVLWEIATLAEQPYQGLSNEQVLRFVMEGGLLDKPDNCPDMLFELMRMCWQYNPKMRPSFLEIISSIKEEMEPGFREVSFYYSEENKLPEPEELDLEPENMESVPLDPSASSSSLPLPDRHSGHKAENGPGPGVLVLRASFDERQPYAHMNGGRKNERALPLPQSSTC
Sequence of Leucine-rich repeat serine/threonine-protein kinase 2 (Homo sapiens) (Q5S007 whole entry): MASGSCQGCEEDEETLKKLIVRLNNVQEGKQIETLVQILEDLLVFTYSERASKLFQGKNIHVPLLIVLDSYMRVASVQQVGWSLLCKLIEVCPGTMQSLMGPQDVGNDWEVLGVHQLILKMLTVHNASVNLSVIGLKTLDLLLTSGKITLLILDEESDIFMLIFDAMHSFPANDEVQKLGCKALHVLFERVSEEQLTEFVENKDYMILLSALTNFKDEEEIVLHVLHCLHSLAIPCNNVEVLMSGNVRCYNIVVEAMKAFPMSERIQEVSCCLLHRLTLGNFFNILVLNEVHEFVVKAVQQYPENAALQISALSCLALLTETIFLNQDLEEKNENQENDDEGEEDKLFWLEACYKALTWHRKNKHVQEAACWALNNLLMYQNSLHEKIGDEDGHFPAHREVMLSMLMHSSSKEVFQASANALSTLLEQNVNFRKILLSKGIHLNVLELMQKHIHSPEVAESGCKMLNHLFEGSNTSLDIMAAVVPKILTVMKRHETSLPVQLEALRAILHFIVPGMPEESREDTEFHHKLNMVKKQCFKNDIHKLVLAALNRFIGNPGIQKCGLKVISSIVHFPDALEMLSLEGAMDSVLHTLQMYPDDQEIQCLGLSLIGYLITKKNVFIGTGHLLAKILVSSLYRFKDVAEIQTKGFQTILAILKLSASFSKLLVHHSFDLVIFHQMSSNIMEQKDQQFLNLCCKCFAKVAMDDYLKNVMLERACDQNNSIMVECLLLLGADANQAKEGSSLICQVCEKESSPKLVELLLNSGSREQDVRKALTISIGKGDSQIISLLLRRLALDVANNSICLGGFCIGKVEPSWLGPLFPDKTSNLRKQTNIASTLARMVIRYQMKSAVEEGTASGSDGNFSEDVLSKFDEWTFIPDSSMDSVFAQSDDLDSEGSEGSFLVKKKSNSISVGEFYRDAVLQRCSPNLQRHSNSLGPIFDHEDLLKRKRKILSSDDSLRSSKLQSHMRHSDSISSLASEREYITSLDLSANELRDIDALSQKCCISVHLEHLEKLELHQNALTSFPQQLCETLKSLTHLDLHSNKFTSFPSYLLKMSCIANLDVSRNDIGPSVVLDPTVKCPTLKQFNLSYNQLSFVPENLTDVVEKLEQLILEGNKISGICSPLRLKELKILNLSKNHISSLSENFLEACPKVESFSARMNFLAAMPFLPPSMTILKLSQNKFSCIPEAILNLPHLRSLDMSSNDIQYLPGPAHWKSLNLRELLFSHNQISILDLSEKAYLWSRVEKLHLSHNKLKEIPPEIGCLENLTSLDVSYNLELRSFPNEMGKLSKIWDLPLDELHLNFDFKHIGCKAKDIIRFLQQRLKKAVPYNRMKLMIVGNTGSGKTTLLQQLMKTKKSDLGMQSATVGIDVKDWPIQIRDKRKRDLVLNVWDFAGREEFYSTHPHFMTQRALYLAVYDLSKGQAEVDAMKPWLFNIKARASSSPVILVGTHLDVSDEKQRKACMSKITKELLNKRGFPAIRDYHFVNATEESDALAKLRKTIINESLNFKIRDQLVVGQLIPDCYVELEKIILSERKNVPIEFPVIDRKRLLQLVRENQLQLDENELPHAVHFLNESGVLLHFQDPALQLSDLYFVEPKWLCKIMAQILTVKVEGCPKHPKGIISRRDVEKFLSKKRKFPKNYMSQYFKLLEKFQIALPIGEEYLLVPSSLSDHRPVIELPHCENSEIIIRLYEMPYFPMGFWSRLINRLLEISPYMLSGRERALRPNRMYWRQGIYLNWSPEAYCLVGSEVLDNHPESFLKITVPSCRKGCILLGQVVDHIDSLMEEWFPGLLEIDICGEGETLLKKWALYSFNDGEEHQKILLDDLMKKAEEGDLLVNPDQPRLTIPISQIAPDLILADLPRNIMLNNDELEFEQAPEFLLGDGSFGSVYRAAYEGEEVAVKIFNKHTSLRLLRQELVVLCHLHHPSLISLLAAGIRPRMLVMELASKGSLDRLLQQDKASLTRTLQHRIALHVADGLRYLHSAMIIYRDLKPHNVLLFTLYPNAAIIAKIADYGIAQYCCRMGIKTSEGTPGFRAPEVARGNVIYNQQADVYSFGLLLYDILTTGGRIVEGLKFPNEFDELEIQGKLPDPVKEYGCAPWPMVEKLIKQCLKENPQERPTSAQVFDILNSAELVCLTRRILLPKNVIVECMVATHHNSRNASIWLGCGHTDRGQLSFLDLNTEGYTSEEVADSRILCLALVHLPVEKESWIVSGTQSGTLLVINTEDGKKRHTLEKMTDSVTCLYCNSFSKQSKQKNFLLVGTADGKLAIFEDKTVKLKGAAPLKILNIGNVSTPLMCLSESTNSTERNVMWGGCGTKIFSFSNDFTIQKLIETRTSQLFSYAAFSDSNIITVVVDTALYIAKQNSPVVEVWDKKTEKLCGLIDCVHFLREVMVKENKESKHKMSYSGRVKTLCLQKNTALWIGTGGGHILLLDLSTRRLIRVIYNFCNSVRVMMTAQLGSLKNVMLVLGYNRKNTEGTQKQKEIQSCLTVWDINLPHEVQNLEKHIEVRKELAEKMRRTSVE
Sequence of Receptor-interacting serine/threonine-protein kinase 2 (O43353 whole entry): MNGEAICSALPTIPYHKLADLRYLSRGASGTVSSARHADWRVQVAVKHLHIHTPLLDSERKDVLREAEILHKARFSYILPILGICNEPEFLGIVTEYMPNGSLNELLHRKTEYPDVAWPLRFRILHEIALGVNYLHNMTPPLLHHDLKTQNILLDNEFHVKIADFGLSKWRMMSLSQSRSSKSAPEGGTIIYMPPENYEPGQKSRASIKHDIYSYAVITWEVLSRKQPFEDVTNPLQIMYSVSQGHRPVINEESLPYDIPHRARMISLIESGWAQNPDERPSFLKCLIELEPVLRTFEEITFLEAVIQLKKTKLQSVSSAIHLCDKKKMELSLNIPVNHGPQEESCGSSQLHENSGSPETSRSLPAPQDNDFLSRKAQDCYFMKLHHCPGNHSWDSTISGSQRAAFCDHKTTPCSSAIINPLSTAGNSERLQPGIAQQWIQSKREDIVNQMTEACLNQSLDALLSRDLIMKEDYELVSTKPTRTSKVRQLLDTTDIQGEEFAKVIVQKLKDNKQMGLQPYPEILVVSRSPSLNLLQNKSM

As to `CS(=O)(=O)c1cccc(Nc2nccc(-c3sc(N4CCOCC4)nc3-c3cccc(NS(=O)(=O)c4c(F)cccc4F)c3)n2)c1`, the inhibition in assay [1] came out at 37.4%; in assay [2], 63.3%; in assay [3], 31.9%; in assay [4] it was 17.8%; in [5], 6.09%; in [6] it was 10.9%. Also, the inhibition was determined as 102% in assay [7]; 9.14% in [8]; 63.4% in [9]; 61.5% in [10]; 99.8% in assay [11]; 7.04% in [13]. For the same compound, the inhibition in [14] worked out at 1.67%. The compound also came in with an IC50 in assay [12] of 7.9 nM.
With `CC(C)(C)c1cc(NC(=O)Nc2ccc(Oc3ccncc3)cc2)no1`, the inhibition in assay [1] was 77.8%; in assay [2], 99.8%; in assay [3], 57.6%; in [4], 14.3%; in assay [5] it was 3.72%; in assay [6], 2.25%. Further, the inhibition is 21.2% in assay [7]; 2.82% in assay [8]; 81.5% in assay [9]; 96.7% in [10]; 90.1% in assay [11]; 3.15% in [13]. In addition, in [14], the inhibition is 3.58%. Besides, in assay [12], the IC50 was 320 nM.
Turning to `COCCNC(=O)c1ccc2c(c1)nc(-c1cnc(-c3ccc(Cl)cc3)[nH]1)n2CCOC`, the inhibition in assay [1] was 11.5%; in assay [2], 57.7%; in assay [3], -3.48%; in [4], 14.8%; in assay [5] it was 0.63%; in assay [6] it was 4.86%. For the same compound, the inhibition was 19.8% in assay [7]; 2.21% in assay [8]; 17.1% in assay [9]; 4.41% in assay [10]; 59.3% in assay [11]; -0.09% in assay [13]. The inhibition in assay [14] was 6.92%. Also, the concentration for half-maximal inhibition (IC50) in assay [12] turned out to be 500 nM.

As a reminder, the inhibition is the drop in the measured response relative to a control, in per cent. Usually IC50 stands for the concentration at which inhibition is half-maximal. High values mean weaker potency, low ones greater potency.
